From article PMC7035259, “T-13 and T-26, the novel taxanes with improved oral bioavailability in rats” (Scientific Reports, 2020)

Tests used:
[1] = design: method as in PMID 23811429; conditions: paclitaxel, rats; cited from earlier work
Caco-2 monolayer cells = system: Caco-2 monolayer cells; design: method as in PMID 24332858; conditions: cited from earlier work
P-glycoprotein (P-gp) = target: T1, P-glycoprotein (P-gp) (Homo sapiens, UniProt P08183); experiment: Interaction with P-gp in MDCK-MDR1 and MDCK-WT cell permeability studies; type: in vitro ADME; conditions: MDCK-MDR1 and MDCK-WT cells; for P-gp substrate activity: with and without a P-gp inhibitor (such as verapamil); for P-gp inhibition: with and without a P-gp substrate (such as digoxin)
T1 construct: expressed in transfected cells; host or cells: MDCK-MDR1 (Madin-Darby canine kidney cells carrying MDR1); MDCK-WT as control
T1 sequence (P08183 whole entry): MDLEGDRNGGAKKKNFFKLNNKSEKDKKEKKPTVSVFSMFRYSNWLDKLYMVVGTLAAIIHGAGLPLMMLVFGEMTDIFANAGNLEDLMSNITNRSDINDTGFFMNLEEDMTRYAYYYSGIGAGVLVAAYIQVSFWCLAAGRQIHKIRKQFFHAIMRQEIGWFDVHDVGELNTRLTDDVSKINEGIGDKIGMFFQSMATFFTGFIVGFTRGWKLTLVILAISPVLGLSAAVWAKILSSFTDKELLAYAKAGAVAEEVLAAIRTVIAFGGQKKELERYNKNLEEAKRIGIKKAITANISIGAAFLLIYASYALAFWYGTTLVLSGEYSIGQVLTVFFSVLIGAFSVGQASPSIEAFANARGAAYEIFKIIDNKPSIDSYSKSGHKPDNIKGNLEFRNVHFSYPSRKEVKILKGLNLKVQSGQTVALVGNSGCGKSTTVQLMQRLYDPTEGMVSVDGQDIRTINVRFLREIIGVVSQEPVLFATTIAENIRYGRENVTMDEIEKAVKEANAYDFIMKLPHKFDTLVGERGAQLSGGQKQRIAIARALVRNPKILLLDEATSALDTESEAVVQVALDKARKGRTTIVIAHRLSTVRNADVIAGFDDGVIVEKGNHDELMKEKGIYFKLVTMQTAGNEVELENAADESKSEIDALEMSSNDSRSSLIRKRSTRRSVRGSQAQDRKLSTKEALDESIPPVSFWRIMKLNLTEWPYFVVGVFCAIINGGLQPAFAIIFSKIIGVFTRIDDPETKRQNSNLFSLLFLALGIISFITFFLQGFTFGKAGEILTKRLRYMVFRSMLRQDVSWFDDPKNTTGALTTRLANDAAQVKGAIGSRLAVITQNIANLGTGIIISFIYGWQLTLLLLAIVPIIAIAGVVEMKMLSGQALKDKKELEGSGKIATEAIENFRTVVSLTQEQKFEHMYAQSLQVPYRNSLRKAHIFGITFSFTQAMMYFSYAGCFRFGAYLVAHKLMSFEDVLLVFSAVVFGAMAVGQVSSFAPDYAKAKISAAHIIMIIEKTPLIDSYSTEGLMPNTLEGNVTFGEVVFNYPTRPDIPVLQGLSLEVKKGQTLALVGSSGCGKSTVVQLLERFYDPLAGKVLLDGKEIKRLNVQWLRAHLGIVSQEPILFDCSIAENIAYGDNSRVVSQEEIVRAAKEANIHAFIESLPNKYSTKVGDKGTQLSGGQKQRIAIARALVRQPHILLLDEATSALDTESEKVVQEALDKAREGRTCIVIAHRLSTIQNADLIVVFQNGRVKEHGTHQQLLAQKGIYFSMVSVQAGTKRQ
Excerpt: In an attempt to increase the solubility of taxoids and develop more safe clinical formulations, we previously synthesized a series of novel taxol analogs by modifying the positions of C7, C10, C14 and C3′, which have improved water solubility and oral bioavailability. […] In order to further evaluate the substrate activity of novel taxol analogs with P-gp and whether they are P-gp inhibitors, T-13 and T-26 were selected based on structural characteristics (with or without 1, 14-carbonate moiety) and cytotoxicity in vitro for evaluation of the interaction with P-gp in Madin-Darby canine kidney (MDCK)-multidrug resistance-1 (MDR1) and MDCK-wild type (WT) cells (a more P-gp specific model)[13],[14] permeability studies, under two sets of conditions: one with and without a P-gp inhibitor (such as verapamil) to look at whether the test compounds were P-gp substrates or not, one with and without a P-gp substrate (such as digoxin) to look at whether the test compounds were P-gp inhibitors or not. […] Therefore, the permeability of the Caco-2 cells was enhanced in vitro.

[2] = Pharmacokinetics after intravenous and oral administration in rats (LC-MS/MS of plasma); type: in vivo, male Sprague-Dawley (S.D.) rats; conditions: oral 60 mg/kg vs intravenous 5 mg/kg, F = (AUCp.o × Dosei.v)/(AUCi.v × Dosep.o) × 100%; for bioavailability: male, Sprague-Dawley, rat, plasma, read-out: F (absolute oral bioavailability)
Experimental: For the pharmacokinetic study, male S.D. rats (average weight 300 g) were fasted overnight to prevent coprophagia but allowing free access to water. The rats were randomly divided into four groups (6 animals each). The dosages of taxanes used in the pharmacokinetic study were based on the previously published reports[15]–[17]. For solution, T-13 and T-26 were dissolved in a mixture of Tween 80 and ethanol (50:50, v/v) at 50 mg/mL for intravenous and oral administration, respectively. Group I received the T-13 stock solution diluted with normal saline solution up to 1 mL at a dose of 5 mg/kg for intravenous injection. Group II received T-13 at a dose of 60 mg/kg for oral administration. Group III received the compound T-26 stock solution diluted with normal saline solution up to 1 mL at a dose of 5 mg/kg for intravenous injection. Group IV received T-26 at a dose of 60 mg/kg for oral administration.
Blood samples (~0.20 mL) were collected into heparin coated tubes at 0, 5, 10, 20, 40 min, 1, 2, 4, 6, 8, 12 and 24 h after intravenous injection and 5, 15, 30, 45 min, 1, 2, 4, 6, 8, 12 and 24 h after oral administration. Blood samples were centrifuged at 12,000 rpm for 10 min. The supernatant fractions were transferred into labeled microcentrifuge tubes and stored at −40 °C until LC-MS/MS analysis.
The concentration of T-13 and T-26 were determined in plasma by LC/MS as described above. Calibration curves were used for the conversion of the T-13/Paclitaxel chromatographic area to the concentration. Calibrator and quality control samples were prepared by adding appropriate volumes of standard T-13 or T-26 acetonitrile solution to drug-free plasma. Calibration curves were designed over the range 5–10,000 ng/mL (γ^2 > 0.999). An aliquot (100 μL) of plasma sample was mixed with 100 μL of acetonitrile containing internal standard (PTX, 500 ng/mL), followed by vortex mixing. Then the mixture was added 3 mL of ethyl acetate, followed by vortex gentle agitation for 3 min. […] The supernatant fraction was transferred to auto-sampler vial, and analyzed by HPLC. […]
The pharmacokinetic analysis of concentration-time data obtained after the administration of the compounds T-13 and T-26 were analyzed by a noncompartmental model using Xcalibur® (version 1.3) Software (Thermo Finnigan). The following pharmacokinetic parameters were calculated from the plasma data of Group I and Group III using WinNonlin5.2. Software: total area under the plasma concentration versus time curve, determined by extrapolation from 0 to ∞ after intravenous administration (AUCiv), half-life of the terminal phase (t1/2) and the mean residence time (MRT). Other parameters such as maximum plasma concentration (Cmax) and the time to reach Cmax (Tmax) were also analyzed after oral administration in rats.

Compound | oral bioavailability [1] | efflux ratio (Caco-2 monolayer cells) | permeability (Caco-2 monolayer cells) | P-gp substrate activity (P-glycoprotein (P-gp)) | P-gp inhibition (P-glycoprotein (P-gp)) | bioavailability [2] | F (absolute oral bioavailability) [2]
CC(=O)O[C@H]1C(=O)[C@@]2(C)[C@H]([C@H](OC(=O)c3ccccc3)[C@]3(O)C[C@H](OC(=O)[C@H](O)[C@@H](NC(=O)c4ccccc4)c4ccccc4)C(C)=C1C3(C)C)[C@]1(OC(C)=O)CO[C@@H]1C[C@@H]2O [paclitaxel, Paclitaxel] | 5% |  |  |  |  |  | 
CO[C@H]1C(=O)[C@]2(C)[C@@H](OC(=O)N(C)C)C[C@H]3OC[C@@]3(OC(C)=O)[C@H]2[C@H](OC(=O)c2ccccc2)[C@]2(O)C[C@H](OC(=O)[C@H](O)[C@H](CC(C)C)NC(=O)OC(C)(C)C)C(C)=C1C2(C)C [Compound T-15] |  | less than 2.0 | highest permeability |  |  |  | 
CO[C@H]1C(=O)[C@]2(C)[C@@H](OC(=O)N(C)C)C[C@H]3OC[C@@]3(OC(C)=O)[C@H]2[C@H](OC(=O)c2ccccc2)[C@]2(O)C[C@H](OC(=O)[C@H](O)[C@@H](NC(=O)OC(C)(C)C)c3ccccc3)C(C)=C1C2(C)C [Compound T-13] |  | less than 2.0 | highest permeability | poor substrates of P-gp | possessed inhibiting effects of P-gp mediated efflux | ~11% | 10.71%
CO[C@H]1C[C@H]2OC[C@@]2(OC(C)=O)[C@H]2[C@H](OC(=O)c3ccccc3)[C@]34OC(=O)O[C@H]3[C@H](OC(=O)[C@H](O)[C@@H](NC(=O)OC(C)(C)C)c3ccccc3)C(C)=C([C@@H](OC(=O)N(C)C)C(=O)[C@]12C)C4(C)C [Compound T-26] |  | less than 2.0 | highest permeability | poor substrates of P-gp | possessed inhibiting effects of P-gp mediated efflux | ~66% | 65.79%
